PMC9663589, “Anti-tumor effects of P-LPK-CPT, a peptide-camptothecin conjugate, in colorectal cancer” (Communications Biology, 2022)
“Also recorded” adds a separate entry of the source. No end group written: not given here.

Key:
HCT116 cells = test: Glutamine competition experiment (FITC-P-LPK uptake); assay type: cell-based, human; details: 0–32 mM glutamine, 37 °C, 2 h
Experimental: Then these cells were washed with ice-cold PBS three times gently, suspended in PBS and transferred to a 96-well costar plate. The fluorescence intensity was measured in a multi-well plate reader (BioTek synergy4).

α-2-macroglobulin = details: androgen-independent prostate cancer cells; cited from earlier work
Description: (§1) The specific binding mechanisms of a peptide to a cell is presumably by its binding to a given receptor expressed at the cell membrane.

[1] = test system: 78 kDa glucose-regulated protein; details: androgen-independent prostate cancer cells; cited from earlier work
Description: as §1

[2] = test system: Metalloproteinase Inhibitor 1 (TIMP-1); details: MDA-MB-231, bioinformatics analysis; cited from earlier work
Description: as §1

in vivo [3] = test: in vivo; set-up: species or system human xenograft in BALB/c nude mice; details: female, BALB/c nude, mouse, iv, 3.7 MBq, total radioactivity, T/NT ratio
Experimental: (§2) To obtain ^68Ga, 0.1 M HCl was used to elute a ^68Ge-^68Ga generator. The radioactivity of eluate was monitored. The radioactive elution peak was collected for ^68Ga radiolabeling experiment. An aliquot of 150 μg of compound P-LPK or P-CON was put in a glass vial and dissolved with 0.2 M sodium acetate/acetic acid buffer, pH 3.8. Then ^68GaCl3 tracer was added, and the pH was adjusted to fall in a range of 3.5~4 with 0.1 M NaOH. The solution was stored at room temperature for 0.5 h. The radiochemical purities of ^68Ga-P-LPK and ^68Ga-P-CON were measured with thin-layer chromatography (TLC), using silica gel-impregnated glass fiber stripe (iTLC SG) and 0.25 M sodium citrate/citric acid buffer as mobile phase. ^68GaCl3 was used as a control.
(§3) Each U87 and HCT116 tumor-bearing mouse was injected in a tail vein with 3.7 MBq (100 μCi, 0.1 nmol in 100 μl) of ^68Ga-P-LPK or ^68Ga-P-CON under isoflurane anesthesia (n = 4 per group). For static PET, 5-min scans were acquired at 30 min, 60 min, and 120 min after injection. The maximum radioactivity concentrations within a tumor or an organ were obtained from mean pixel values within the multiple regions of interest (ROI) volume.
For the blocking experiment, unlabeled P-LPK was first injected into mice (n = 3 per group), and 3.7 MBq ^68Ga-P-LPK was then injected. Static PET images were acquired at 30 min, 60 min and 120 min post-injection.

in vivo [4] = test: in vivo; set-up: species or system human xenograft in BALB/c nude mice; details: female, BALB/c nude, mouse, iv, 3.7 MBq, total radioactivity, T/NT ratio; remark: listed apart in the source
Experimental: as §2, §3

U87 tumors = test: in vivo; set-up: species or system human xenograft in BALB/c nude mice; details: female, BALB/c nude, mouse, iv, 3.7 MBq, 2 h
Experimental: as §2, §3

CRC cells = details: conjugated to CPT
human CRC cell lines [5] = details: earlier phage display study; cited from earlier work
Description: The phage display technique is a powerful tool to identify novel targeting peptides in researches and clinics[10]–[12]. By screening whole cells, it is able to identify short peptides that interact with cell surface molecules.

[6] = test system: Plasminogen activator inhibitor 1 precursor (PAI1); details: MDA-MB-231, bioinformatics analysis; cited from earlier work
Description: as §1

human CRC cell lines [7] = test: Peptide binding to a panel of human CRC cell lines; assay type: cell-based; details: confocal imaging, in contrast to NCM460; FITC-labeled
Experimental: NCM460, Colo320HSR, HCT116, LoVo, HT29 and SW480 cells were respectively incubated with FITC-labeled P-LPK (Random peptide P-CON) peptides for 2 h at 37 °C and washed with PBS for three times. The cells were fixed with 4% paraformaldehyde for 30 min at room temperature, and then 4,6-diamidino-2-phenylindole (DAPI) was used for nucleic acid stain. A laser scanning confocal microscope was used to visualize the cells. The fluorescence intensity was analyzed using the Image-Pro Plus 6.0 software. For cell localization experiment, 20 μg/ml rhodamine-labeled peptides were incubated with NCM460 and HCT116 for 2 h, and then washed with PBS for three times. After that, the cell membrane was stained with a blue cell membrane probe (Thermo Fisher Scientific, Cat. No. W11263). The binding of Rhodamine-P-LPK to cells and their localization in cells was observed under a confocal microscope.

SLC1A5 in HT29 cells = test: FITC-P-LPK binding after SLC1A5 knockdown; assay type: cell-based, human; details: si-SLC1A5, 48 h
Experimental: (§4) Fig. 6 P-LPK bound to SLC1A5 and entered CRC cells through endocytosis. a, b Western blotting analysis of SLC1A5 in NCM460, HCT116, LoVo, SW480, HT29 and Colo320HSR cells. After knocking down SLC1A5 in HCT116 and HT29, the binding intensity of FITC-P-LPK to cells was observed by confocal microscopy. Bar, 10 μm. c, d Effects of different endocytosis inhibitors on the internalization of FITC-P-LPK. HCT116 cells were pre-treated with 10 µM chlorpromazine, 50 μM methyl-β-cyclodextrin, 20 µM Amiloride hydrochloride for 30 min at 37 °C. Subsequently, the cells were incubated with FITC-P-LPK for 2 h. Then the fluorescence intensity was observed by confocal microscopy and detected using a multi-well plate reader (n = 5, means ± SD, NC vs CPZ, p = 0.0001; NC vs MβCD, p = 0.9069; NC vs EIPA, p = 0.9812) (****p < 0.0001). Bar, 10 μm. e The competition experiment with SLC1A5 substrates glutamine. FITC-P-LPK was incubated with increasing concentrations (0–32 mM) of glutamine in HCT116 cells at 37 °C for 2 h. The fluorescence intensity was measured in a multi-well plate reader (n = 5, means ± SD). […]
(§5) Primary antibodies against SLC1A5 (Abcam,  Cat No. ab237704,1:1000) and secondary antibodies labeled with HRP (YEASEN, 33701ES60, China,1:5000) was applied. Signals were detected using ECL Kit (Pierce Biotech, Rockford, IL). β-Actin (Sigma,USA, A5441) was performed as an internal control.

SLC1A5 in HCT116 cells = test: FITC-P-LPK binding after SLC1A5 knockdown; assay type: cell-based, human; details: si-SLC1A5, 48 h
Experimental: as §4, §5

## NC(=O)CC[C@H](N)C(=O)O [glutamine]
HCT116 cells
  Effect on uptake of FITC-P-LPK: does not affect the uptake of P-LPK

## PKRGFQD [peptide targeting androgen-independent prostate cancer cells]
α-2-macroglobulin
  Binding: bind specifically to α-2-macroglobulin

## SNTRVAP [peptide targeting androgen-independent prostate cancer cells]
[1]
  Binding: bind specifically

## PRWAVSP [peptide targeting MDA-MB-231]
[2]
  Targeting: specifically targeted Metalloproteinase Inhibitor 1 (TIMP-1)

## DLPSRTSALASG [68Ga-P-CON, metal not drawn]
In vivo [3]
  tissue to tissue ratio at 0.5 h: 1.58
  tissue to tissue ratio at 1 h: 1.49
  tissue to tissue ratio at 2 h: 1.37
In vivo [4]
  tissue to tissue ratio at 0.5 h: 1.75
  tissue to tissue ratio at 1 h: 1.56
  tissue to tissue ratio at 2 h: 1.33
U87 tumors
  T/NT ratio: 1.28

## DWSSWVYRDPQT [CBP-DWS]
CRC cells
  Improvement of CPT killing when used as targeting vector: did not improve the targeted killing ability
Human CRC cell lines [5]
  Binding to CRC cells: selectively bound to CRC cells

## DTFNSFGRVRIE [peptide targeting MDA-MB-231]
[6]
  Targeting: specifically targeted

## FITC-P-LPK (LPKTVSSDMSLN; also: FITC label, position not given here)
Human CRC cell lines [7]
  FITC-peptide binding to CRC cells: stronger green fluorescence in CRC cells than normal NCM460 cells; also recorded: abundant binding capacity to human CRC cell lines
SLC1A5 in HT29 cells
  Fluorescence after SLC1A5 knockdown: reduction of the fluorescence
SLC1A5 in HCT116 cells
  Fluorescence after SLC1A5 knockdown: reduction of the fluorescence
